Experimental data taken from article PMC9981747, “A covalent BTK ternary complex compatible with targeted protein degradation” (Nature Communications, 2023).
Where “and” joins values, the source holds several entries; their conditions need not be identical. Identical values can stand only once.

Key:
BTK^T474I = molecular target: T1, BTK^T474I (Homo sapiens, UniProt Q06187+Q13490, T474I); assay: Expi293 dose-dependent degradation of BTK gatekeeper mutant; assay type: cell-based; details: Expi293 with cIAP1^FL
T1 construct: we used a full-length BTK (aa1-659) with a C terminal Tobacco Etch Virus protease (TEV) site; expressed in transfected cells; host or cells: Expi293 (HEK293)
T1 sequence (Q06187 whole entry T474I, the tested form may be a part): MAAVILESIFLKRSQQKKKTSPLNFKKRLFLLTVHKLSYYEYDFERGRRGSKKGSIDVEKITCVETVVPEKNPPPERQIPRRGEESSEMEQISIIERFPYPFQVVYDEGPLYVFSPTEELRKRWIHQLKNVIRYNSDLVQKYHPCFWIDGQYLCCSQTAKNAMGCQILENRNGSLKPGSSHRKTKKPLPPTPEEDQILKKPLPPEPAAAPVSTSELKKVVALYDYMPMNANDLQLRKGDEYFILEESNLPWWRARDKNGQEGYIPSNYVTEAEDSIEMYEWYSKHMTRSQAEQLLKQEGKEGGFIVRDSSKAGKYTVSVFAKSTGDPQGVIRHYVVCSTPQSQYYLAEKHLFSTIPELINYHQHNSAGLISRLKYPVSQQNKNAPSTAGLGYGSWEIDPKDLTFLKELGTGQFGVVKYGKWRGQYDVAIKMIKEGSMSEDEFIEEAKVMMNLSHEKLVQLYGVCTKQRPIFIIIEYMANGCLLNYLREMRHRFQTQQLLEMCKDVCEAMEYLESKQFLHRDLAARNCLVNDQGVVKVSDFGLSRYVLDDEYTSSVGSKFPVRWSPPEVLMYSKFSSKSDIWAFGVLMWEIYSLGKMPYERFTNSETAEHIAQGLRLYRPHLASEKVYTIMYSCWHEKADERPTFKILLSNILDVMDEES
T1 sequence (Q13490 whole entry, the tested form may be a part): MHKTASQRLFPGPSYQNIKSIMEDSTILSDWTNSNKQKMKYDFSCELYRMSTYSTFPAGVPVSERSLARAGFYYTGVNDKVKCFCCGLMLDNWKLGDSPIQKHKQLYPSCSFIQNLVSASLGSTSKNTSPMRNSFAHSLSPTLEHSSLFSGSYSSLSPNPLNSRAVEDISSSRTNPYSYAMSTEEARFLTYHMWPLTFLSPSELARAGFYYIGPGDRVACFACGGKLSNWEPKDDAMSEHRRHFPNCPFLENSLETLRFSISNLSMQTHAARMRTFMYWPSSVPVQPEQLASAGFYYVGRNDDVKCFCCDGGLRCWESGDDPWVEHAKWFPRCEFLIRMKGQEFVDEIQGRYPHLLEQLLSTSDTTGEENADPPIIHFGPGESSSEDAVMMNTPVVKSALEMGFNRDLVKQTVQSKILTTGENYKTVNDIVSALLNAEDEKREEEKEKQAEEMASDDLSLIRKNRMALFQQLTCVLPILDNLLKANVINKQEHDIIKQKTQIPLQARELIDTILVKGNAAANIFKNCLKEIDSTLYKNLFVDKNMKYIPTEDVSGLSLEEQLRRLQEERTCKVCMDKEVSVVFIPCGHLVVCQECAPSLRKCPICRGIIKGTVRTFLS
Method: (§1) Gibco Expi293 cell line Transfection Kit (Cat.# A14524) was cultured according to the manufacturers conditions. Cells were grown at 37 °C with 5% CO2 to 4 × 10^6 cells/mL using an orbital shaker set to 95 RPM. Next cells were split to 2 × 10^6 cells/mL and transfected with plasmid DNA at a 1 µg/mL final concentration in Optimem (Gibco 31985070) using the Expifectamine 293 transfection reagent according to manufacturer’s conditions. After approximately 18 h, enhancers 1 and 2 (provided with kit). Viability was typically about 85%. When cIAP1^FL was transfected, it was detected via α-cIAP1 antibody there was typically some autoubiquitination detected, and thus often appeared as a laddered or smeared band via western blotting. When BTK^FL variants were transfected, they were detected using anti-BTK antibody (D3H5).
For dose-dependent degradation assays, cells were plated in a 24-well format and placed on a separate orbital shaker set to 115 RPM. […] Clarified lysate was harvested and quantified using a Pierce BCA Assay Kit (Cat. #23225), and 20 µg of the sample was loaded into a 4–15% Criterion TGX gel (Bio-Rad, 5678085) and transferred to a nitrocellulose membrane (Life Technologies Cat. #IB23001) using an iBlot 2 (Life Technologies Cat. #IB21001). Proteins were detected using an iBind system (Life Technologies SLF2020). […]

BTK^FL-F559A = molecular target: T2, BTK^FL-F559A (Homo sapiens, UniProt Q06187+Q13490, F559A); assay: Expi293 dose-dependent degradation of BTK^FL-F559A; assay type: cell-based; details: for BTK^FL-F559A blot signal normalized to DMSO: replicates
T2 construct: we used a full-length BTK (aa1-659) with a C terminal Tobacco Etch Virus protease (TEV) site; expressed in transfected cells; host or cells: Expi293 (HEK293)
T2 sequence (Q06187 whole entry F559A, the tested form may be a part): as the sequence (Q06187 whole entry T474I, the tested form may be a part) above, with I474T, F559A counted along it
T2 sequence (Q13490 whole entry, the tested form may be a part): as the sequence (Q13490 whole entry, the tested form may be a part) above
Method: as §1
For dose-dependent degradation assays, cells were plated in a 24-well format and placed on a separate orbital shaker set to 115 RPM. Each well was treated with prescribed compound concentrations in the same manner as with THP-1 cells, with the exception of using Expifectamine 293 growth medium in place of RPMI 1640 complete media. After approximately 18 h post-treatment cells were harvested, centrifuged at 100 x g at 4 °C, washed twice with ice-cold PBS, and resuspended in RIPA buffer supplemented with a Roche protease inhibitor cocktail (Cat. #11873580001), and benzonase nuclease (Millipore-Sigma Cat# 70664). Each sample was incubated on ice for 30 min with periodic vortexing and centrifuged at 15 Kxg for 20 min. Clarified lysate was harvested and quantified using a Pierce BCA Assay Kit (Cat. #23225), and 20 µg of the sample was loaded into a 4–15% Criterion TGX gel (Bio-Rad, 5678085) and transferred to a nitrocellulose membrane (Life Technologies Cat. #IB23001) using an iBlot 2 (Life Technologies Cat. #IB21001). Proteins were detected using an iBind system (Life Technologies SLF2020). For BTK^T474I and BTK^T474I/C481S we inferred ligand entry into cells via the autoubiquitination and dose-dependent degradation of cIAP1^FL,[58].
Dose-dependent Degradation was analyzed using ImageJ (NIH, version 1.50i). Densiometric analysis was performed, normalized to DMSO signal, and analyzed using GraphPad Prism (Version 9.0.0 (121)). Non-linear fit one-phase decay analysis was used to obtain DC50 values. When we observed a hook effect, some points were excluded as part of the fit. In Supplementary Fig. 7B the complete curve was fit using GraphPad Prism non-linear regression bell-shaped curve where X is the concentration. However, using this method we were unable to obtain stable values for our DC50. SEM error was plotted for each point. When determining statistically significant differences, we used a two-sided student’s unpaired T-Test.

BTK^FL-C481S = molecular target: T3, BTK^FL-C481S (Homo sapiens, UniProt Q06187, C481S); assay: Covalent modification of BTK^FL-C481S in Expi293 cells, intact mass spectrometry; assay type: cell-based; details: 20 µM
T3 construct: we used a full-length BTK (aa1-659) with a C terminal Tobacco Etch Virus protease (TEV) site; expressed in transfected cells; host or cells: Expi293 (HEK293)
T3 sequence (Q06187 whole entry C481S, the tested form may be a part): as the sequence (Q06187 whole entry T474I, the tested form may be a part) above, with I474T, C481S counted along it
Method: For covalent modification detection assays, the compound was added to Expi293 cells after enhancer treatment. At each timepoint 10 mL of cells were harvested, rapidly cooled to 4 °C in an ice bath, and centrifuged at 100 x g at 4 °C for 5 min. The pellet was washed twice with ice-cold PBS, snap-frozen in liquid nitrogen, and stored at −80 °C. Each pellet was resuspended in 0.1 mL ice-cold RIPA Buffer supplemented with 40 µM BCNC (to outcompete any remaining BCCov), protease inhibitor, and benzonase, and sonicated with 10 brief blasts at power 20. Lysate was centrifuged at 15 K x g for 20 min at 4 °C and prepared for western blotting as detailed above. When samples were evaluated for covalent adduct formation, a purification step was required. Briefly, the ~1 mL of clarified lysate was added to 9 mL of FLAG binding buffer (25 mM HEPES 7.5, 300 mM NaCl, 10% glycerol). […]
Each sample was analyzed using intact mass spectrometry under denaturing conditions using an Agilent 6530 QToF Mass Spectrometer coupled with an Agilent Infinity 1290 UPLC chromatography system. Spectra were analyzed using ChemLaunch v1.6.8 (Healex Systems), Mass Hunter V7.0 (Agilent Technologies), and BioConfirm v8.0 (Agilent Technologies). For all proteins analyzed, approximately 2 μl of 0.1–0.4 mg/ml protein sample was added to 8 μl 0.2% trifluoroacetic acid (TFA) (Sigma T6508–100 mL). […]

BTK^FL = molecular target: T4, BTK^FL (Homo sapiens, UniProt Q06187+Q13490); assay: Tetracycline-inducible (T-REx) cIAP1^FL degradation of pre-formed BTK^FL~BCCov in Expi293; assay type: cell-based; details: pre-formed BTK^FL~BCCov (20 µM, 18 h), then tetracycline induction of cIAP1^FL
T4 construct: we used a full-length BTK (aa1-659) with a C terminal Tobacco Etch Virus protease (TEV) site; expressed in transfected cells; host or cells: Expi293 (HEK293)
T4 sequence (Q06187 whole entry, the tested form may be a part): as the sequence (Q06187 whole entry T474I, the tested form may be a part) above, with I474T counted along it
T4 sequence (Q13490 whole entry, the tested form may be a part): as the sequence (Q13490 whole entry, the tested form may be a part) above
Method: For assays involving inducible cIAP1 expression, 18 h after compound treatment cells were treated with a final concentration of 1.0 µg/mL tetracycline (Teknova Cat. #T3325) and shaken for another 18 h. These samples were processed for western blotting as detailed above. Washout condition consisted of 4 × 10 mL PBS resuspension, centrifugation, and removal repeated for four cycles before resuspension in cellular media.

cIAP1^BUCR1 = cIAP1^BUCR1 (Homo sapiens, UniProt Q13490); assay: biochemical
cIAP1^BUCR1, sequence (Q13490 260-618): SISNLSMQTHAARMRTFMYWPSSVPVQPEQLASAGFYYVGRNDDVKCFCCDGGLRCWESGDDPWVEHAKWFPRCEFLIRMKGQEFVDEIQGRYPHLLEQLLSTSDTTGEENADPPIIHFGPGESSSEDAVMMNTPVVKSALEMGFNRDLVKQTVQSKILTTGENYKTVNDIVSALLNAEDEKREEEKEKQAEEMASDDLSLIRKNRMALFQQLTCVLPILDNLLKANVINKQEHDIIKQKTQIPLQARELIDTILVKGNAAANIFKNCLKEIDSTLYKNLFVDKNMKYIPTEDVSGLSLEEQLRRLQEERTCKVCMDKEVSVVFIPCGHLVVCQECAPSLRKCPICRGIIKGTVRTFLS
Method: Experiments were performed on a Biacore^TM 8k instrument (GE Healthcare). Biotinylated cIAP1^Bir3 was captured onto a streptavidin sensor chip to levels ranging from 3000–4000 RU. Compound binding experiments were performed in 10 mM HEPES, pH 7.5, 150 mM NaCl, 0.02% BSA, 0.01% P20, and 2% DMSO at 25 °C. Experiments were carried out with n = 4 at 6 concentrations, with the highest concentration of 37 nM and subsequent 3-fold dilutions. BCCov was injected at a flow rate of 30 µL/min, total contact time of 120 s, and dissociation times of 5000 s, using the Single Cycle Kinetics experiment. Binding responses were processed using the Biacore 8k software to zero, x-align, double reference, and correct for excluded volume effects of DMSO in the data.

CNC(C)C(=O)NC(C(=O)N1CC(NC(=O)COCCN2CCN(CC=CC(=O)N3CCCC(n4nc(-c5ccc(Oc6ccccc6)cc5)c5c(N)ncnc54)C3)CC2)CC1C(=O)NC1CCCc2ccccc21)C1CCCCC1 (stereo not drawn) [BCCov]
degradation of BTK^T474I (BTK^T474I): loss of activity
BTK^FL-F559A blot signal normalized to DMSO (BTK^FL-F559A; 0.00976562 uM): 1.17 and 1.06 and 0.96
BTK^FL-F559A blot signal normalized to DMSO (BTK^FL-F559A; 0.0195312 uM): 1.16 and 1.04 and 1.13
BTK^FL-F559A blot signal normalized to DMSO (BTK^FL-F559A; 0.0390625 uM): 0.92 and 0.90 and 0.89
BTK^FL-F559A blot signal normalized to DMSO (BTK^FL-F559A; 0.078125 uM): 0.58 (2×) and 0.71
BTK^FL-F559A blot signal normalized to DMSO (BTK^FL-F559A; 0.15625 uM): 0.39 and 0.23 and 0.37
BTK^FL-F559A blot signal normalized to DMSO (BTK^FL-F559A; 0.3125 uM): 0.25 and 0.12 and 0.28
BTK^FL-F559A blot signal normalized to DMSO (BTK^FL-F559A; 0.625 uM): 0.23 and 0.10 and 0.24
BTK^FL-F559A blot signal normalized to DMSO (BTK^FL-F559A; 1.25 uM): 0.22 and 0.0565 and 0.18
BTK^FL-F559A blot signal normalized to DMSO (BTK^FL-F559A; 2.5 uM): 0.23 and 0.05 and 0.19
BTK^FL-F559A blot signal normalized to DMSO (BTK^FL-F559A; 5 uM): 0.18 and 0.08 and 0.22
degradation of F559A mutant (BTK^FL-F559A; Expi293): retains potent cellular degradation
covalent adduct formation on BTK^FL-C481S (BTK^FL-C481S): no similar adduct
Dmax (BTK^FL): ~70%
Kd (cIAP1^BUCR1): ≤ 10 nM
